These results are taken from US20060160820A1, “Substituted piperazine carbamates” (Novo Nordisk A/S, priority 2003, published 2006).

Structures can show the parent of a compound that is named as a salt.

System in the first data set: not given
Test: not given
Settings: not given
Turning to `O=C(Oc1ccc(Oc2ccc(C(F)(F)F)cn2)cc1)N1CCN(CCCc2ccccn2)CC1`, the melting point (in general, the temperature, or range, at which the solid turns liquid) was in the range of 204 to 205 °C. The same measure, in the same setting: the value for `O=C(Oc1ccc(Oc2ccc(C(F)(F)F)cn2)cc1)N1CCN(CCCc2cccnc2)CC1` (as salt: hydrochloride) [Example 8, 4-(3-Pyridin-3-yl-propyl)-piperazine-1-carboxylic acid 4-(5-trifluoromethyl-pyridin-2-yloxy)-phenyl ester] was 203 to 208 °C.

The target of the next data set is T1, Hormone-sensitive lipase (HSL) (Homo sapiens, UniProt Q05469).
T1 construct: made in house
T1 sequence (Q05469 1-775 isoform Q05469-2): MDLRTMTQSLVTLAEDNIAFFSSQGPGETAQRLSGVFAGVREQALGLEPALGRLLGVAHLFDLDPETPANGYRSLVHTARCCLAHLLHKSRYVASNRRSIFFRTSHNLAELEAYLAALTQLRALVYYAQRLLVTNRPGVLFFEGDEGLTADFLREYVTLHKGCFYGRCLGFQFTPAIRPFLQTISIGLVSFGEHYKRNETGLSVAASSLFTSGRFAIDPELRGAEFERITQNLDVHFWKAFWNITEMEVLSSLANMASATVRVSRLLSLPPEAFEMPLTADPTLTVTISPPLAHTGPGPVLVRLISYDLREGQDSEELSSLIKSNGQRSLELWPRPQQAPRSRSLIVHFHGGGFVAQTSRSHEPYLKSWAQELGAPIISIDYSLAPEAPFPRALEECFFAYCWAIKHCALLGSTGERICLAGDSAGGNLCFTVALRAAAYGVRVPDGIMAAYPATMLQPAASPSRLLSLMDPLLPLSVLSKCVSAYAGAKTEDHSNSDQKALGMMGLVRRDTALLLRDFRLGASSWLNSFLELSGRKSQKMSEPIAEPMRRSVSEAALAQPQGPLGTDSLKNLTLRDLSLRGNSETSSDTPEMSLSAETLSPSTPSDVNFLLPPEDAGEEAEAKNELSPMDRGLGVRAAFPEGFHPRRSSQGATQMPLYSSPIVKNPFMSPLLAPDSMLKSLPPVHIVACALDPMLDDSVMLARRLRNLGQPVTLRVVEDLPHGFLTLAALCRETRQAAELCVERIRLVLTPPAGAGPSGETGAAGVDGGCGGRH
The data set can be described thus: 3190.1: percent inhibition of hormone sensitive lipase, fluorochrome-labeled triacylglyceride emulsion. The settings on record: 10 μM sample concentration; preincubated 30 min at 25° C.; 120 min incubation at 37° C.; remaining activity; read-out: 3190.1 HSL_FL % ACTIVITY (% activity relative to non-inhibited sample). Format: biochemical. The source says: The Hormone-sensitive lipase was provided by Dr. Cecilia Holm, from Lund University Sweden or produced and purified by Novo Nordisk (NN) using the reagents and protocols used by Dr. Holm. The substrates used are: ^3H-labeled triolein (TO) from Amersham, Buckinghamshire, U.K. cat No. TRA191; 5-20 Ci/mmol dissolved in toluene, triolein (Sigma, Cat. No. T-1740), fluorochrome-labeled triacylglyceride (cis-octadec-9-enoic acid 2-[12-(7-nitrobenzo[1,2,5]oxadiazol-4-ylamino)dodecanoyloxy]-1-cis-octadec-9-enoyloxymethyl-ethyl ester) prepared by Novo Nordisk (NN) by conventional methods, and 1,3-(di[^3H]-stearin), 2-(PEG-Biotin)glycerol prepared in collaboration with Amersham Pharmacia Biotech, UK and described in WO 01/073442. Phosphatidyl choline (PC) and phosphatidyl inositol (PI) are from Sigma (St Luis MO cat. Nos. P-3556 and P-5954 respectively). All other reagents are of commercial grade and obtained from various commercial sources.
3190.1: Assay for determination of percent inhibition of hormone sensitive lipase by compound at 10 μM sample concentration.
A lipid emulsion with fluorochrome-labeled triacylglyceride and phospholipid is used as substrate with a standard concentration of highly purified HSL (12 μg/mL initial concentration corresponding to 600 ng/mL final concentration). BSA is added as product acceptor. The transfer of the fluorochrome from the lipid phase to the water (BSA) phase changes the fluorescent properties of the fluorochrome. The changes can be monitored on a fluorimeter with an excitation wavelength of 450 nm and an emission wavelength of 545 nm.
Compound and HSL (20 μL compound, 10 μL enzyme and 70 μL PED-BSA buffer) is preincubated for 30 min at 25° C. before addition of substrate (100 μL). Amount of formed product is measured after 120 min incubation at 37° C.
Results are given as percent activity relative to a non-inhibited sample (no compound).
In the case of `O=C(Oc1ccc(Cc2ccc(C(F)(F)F)cc2)cc1)N1CCN(CCc2ccccn2)CC1` [Example 1, 4-(2-Pyridin-2-yl-ethyl)-piperazine-1-carboxylic acid 4-(4-trifluoromethyl-benzyl)-phenyl ester], the activity at 10 µM is 6%.

In the case of `O=C(Oc1ccc(Oc2ccc(C(F)(F)F)cn2)cc1)N1CCN(CCCc2cccnc2)CC1` [Example 8, 4-(3-Pyridin-3-yl-propyl)-piperazine-1-carboxylic acid 4-(5-trifluoromethyl-pyridin-2-yloxy)-phenyl ester], the activity at 10 µM worked out at 1%. Still for that read-out and setting: the figure for `O=C(Oc1ccc(Oc2ccc(C(F)(F)F)cn2)cc1)N1CCN(CCc2cccnc2)CC1` [Example 9, 4-(2-Pyridin-3-yl-ethyl)-piperazine-1-carboxylic acid 4-(5-trifluoromethyl-pyridin-2-yloxy)-phenyl ester] is 2%; for `CC1(C)CC(=O)N(c2ccc(OC(=O)N3CCN(Cc4ccccn4)CC3)nc2)C(=O)C1` [Example 4, 4-Pyridin-2-ylmethyl-piperazine-1-carboxylic acid 4,4-dimethyl-2,6-dioxo-3,4,5,6-tetrahydro-2H-[1,3′]bipyridinyl-6′-yl ester] it is 64%. For the compound `CC1(C)CC(=O)N(CCc2ccc(OC(=O)N3CCN(CCc4ccccn4)CC3)cc2)C(=O)C1` [Example 7, 4-(2-Pyridin-2-yl-ethyl)-piperazine-1-carboxylic acid 4-[2-(4,4-dimethyl-2,6-dioxo-piperidin-1-yl)-ethyl]-phenyl ester], the activity at 10 µM was 8%. Still for that read-out and setting: the value for `O=C(Oc1ccc(Cc2ccc(C(F)(F)F)cc2)cc1)N1CCN(Cc2ccccn2)CC1` [Example 2, 4-Pyridin-2-ylmethyl-piperazine-1-carboxylic acid 4-(4-trifluoromethyl-benzyl)-phenyl ester] was 4%.
